Reference: patent US10183952B2, “Thienopyrroles as histone demethylase inhibitors” (ISTITUTO EUROPEO DI ONCOLOGIA S.R.L., priority 2014, dated 2019)
Counter-ions that a name gives are not always drawn.

Key:
[1] = tested on: human leukemia MV4-11 cells; experiment: Cell growth, CellTiter-Fluor Cell Viability Assay, MV4-11; type: cell-based; conditions: 48 h incubation, read-out: IC50 against human leukemia MV4-11 cells
Excerpt: (§1) The CellTiter-Fluor™ Cell Viability Assay measures the conserved and constitutive protease activity within live cells and therefore acts as a marker for cell viability.
(§2) CellTiter-Flor® (Promega) is as a nonlytic, single-reagent-addition fluorescence assay that measures the relative number of living cells in a culture population after experimental manipulation. The CellTiter-Fluor™ Cell Viability Assay measures the conserved and constitutive protease activity within live cells and therefore acts as a marker for cell viability.
(§3) Human leukemia MV4-11 cells, (obtained from the Deutsche Sammlung von Mikroorganismen und Zellkulturen, ACC 102) or NB4 cells, (obtained from the Deutsche Sammlung von Mikroorganismen und Zellkulturen) in exponential growth, were incubated for 48 h with different concentrations of the inhibitors. After 48 h a volume of CellTiter-Fluor® Reagent equal to one fifth of volume of cell culture medium was added. The content was mixed and incubates for at least 90 min at 37° C. degree to obtain a stable signal. The fluorescence was recorded using an excitation wavelength of 360 nm and an emission at 535 nm. The IC50 was calculated using GraphPad Software.

human leukemia NB4 cells = experiment: Cell growth, CellTiter-Fluor Cell Viability Assay, NB4; type: cell-based; conditions: NB-4, 48 h incubation, read-out: IC50 against human leukemia NB4 cells
Excerpt: as §1, §2, §3

[2] = target: human recombinant KDM1A/CoREST protein (Homo sapiens, UniProt O60341); experiment: Assay of enzyme inhibition of KDM1A (LSD1), TR-FRET
Method: The intensity of the light emission is proportional to the level of biotinylated reaction product. The complex of human recombinant KDM1A/CoREST protein was produced in E. coli as separate proteins and co-purified as previously described.
Demethylase reaction was started by the addition of 50 nM histone H3K4 monomethylated.
The resulting mixture was incubated in the dark for 1 h at RT.

IC50 [1] | IC50 (human leukemia NB4 cells) | IC50 [2] | Structure (SMILES)
< 10 µM | < 20 µM | < 10 µM | Cn1c(C(=O)Nc2ccccc2CCc2ccc(OC3CCNCC3)cc2)cc2sccc21 [Example 61, 4-Methyl-N-[2-[2-[4-(4-piperidyloxy)phenyl]ethyl]phenyl]thieno[3,2-b]pyrrole-5-carboxamide hydrochloride]
< 10 µM | < 20 µM | < 10 µM | Cn1c(C(=O)Nc2cccc(CCc3ccc(OC4CCNCC4)cc3)c2)cc2sccc21 [Example 62, 4-Methyl-N-[3-[2-[4-(4-piperidyloxy)phenyl]ethyl]phenyl]thieno[3,2-b]pyrrole-5-carboxamide hydrochloride]
< 10 µM | < 20 µM | < 10 µM | Cn1c(C(=O)Nc2ccccc2CNc2ccc(OC3CCNCC3)cc2)cc2sccc21 [Example 63, 4-Methyl-N-[2-[[4-(4-piperidyloxy)anilino]methyl]phenyl]thieno[3,2-b]pyrrole-5-carboxamide dihydrochloride]
